From publication PMC10916352, “Safety Evaluation of a Prototypical Diazirine-Based Covalent Crosslinker and Molecular Adhesive” (International Journal of Toxicology, 2023)
Where “and” joins values, the source holds several entries; their conditions need not be identical. Equal entries are not always repeated.

Experiments:
[1] = 3T3 Neutral Red uptake cytotoxicity and phototoxicity assay; settings: mouse, Balb/c 3T3 fibroblasts (clone 31); for viability: Viability of cells over all tested concentrations, .316 to 1000 μg/mL
Protocol: (§1) The 3T3 Neutral Red uptake assay was used to evaluate the phototoxicity of BondLynx. The NRU assay makes use of Neutral Red dye, a weak cationic dye that penetrates the cell membrane by non-ionic passive diffusion and accumulates in lysosomes. Cytotoxicity of the test material is evaluated by measuring the OD540 to assess the uptake of Neutral Red dye.[28],[29] […] By measuring cytotoxicity in the absence vs presence of UV and visible light, the phototoxicity of the test material can be determined.[30],[31]
(§2) Cells were routinely trypsinized and passaged, at least once weekly, with a split ratio 1:3 to 1:4 to achieve a near confluent culture.
(§3) Stock solutions of both controls were freshly prepared on the day of testing. The vehicle control was 1% DMSO in EBSS for the positive control, EBSS for the negative control, and .5% ethanol in EBSS for BondLynx. BondLynx was dissolved in ethanol for testing. […] All controls and BondLynx were handled in the dark and tested in 8-fold.
(§4) In preparation for testing, cultures of 3T3 fibroblasts were trypsinized and resuspended in culture medium. […] A total of six plates were prepared in this manner – two each for the positive control, the negative control, and BondLynx. Following incubation, the cell culture medium was removed, and the wells washed with DPBS (Dulbecco’s phosphate-buffered saline). A 200 μL aliquot of each dilution of the test compound (BondLynx or a control) was added the first eight columns, and the appropriate vehicle control was added to the last four columns. All plates were incubated an additional 60 min before irradiating one plate for each test compound (+Irr) in a solar simulator with a WG320 nm filter for 22 min (equivalent to 5 J/cm^2 UV-A), while the second plate for each test compound (–Irr) was kept in the dark at room temperature. Subsequently, the test solutions were removed from the plates, and the cells were washed once with DPBS and suspended in 200 μL of supplemented DMEM to incubate for an additional 20-24 h.
(§5) Immediately following incubation, the confluency of each plate was visually assessed, and the culture medium was replaced with 100 μL of Neutral Red dye (50 μg/mL). The plates were incubated another 3.5 h before removing the dye, washing with 150 μL of DPBS, and shaking for 20-40 min in 150 μL Neutral Red destain solution (ethanol:acetic acid:distilled water, 50:1:49). The optical density at 540 nm was measured for each well and corrected by subtracting the appropriate blank.

[2] = test system: Balb/c 3T3 fibroblasts (clone 31); test: as above; settings: for Corrected Mean OD540: 8 wells
Protocol: as §1, §2, §3, §4, §5

[3] = test system: Salmonella typhimurium TA98; test: Bacterial reverse mutation test (Ames), strain TA98; type: cell-based; settings: for Revertant Colonies (With S9), plates A, B, C / Revertant Colonies (Without S9), plates A, B, C: individual plates
Protocol: The reverse mutation test was performed to determine the potential of BondLynx and/or its metabolites to induce reverse mutations at the histidine locus of Salmonella typhimurium.[26],[27] The test employs strains of Salmonella typhimurium carrying mutations in the genes involved in histidine production, such that they are only able to grow in histidine supplemented culture media. Upon exposure to mutagenic materials, these mutations may be reversed, thereby restoring the ability to grow in histidine-free media. When grown in the presence of the test compound on media with a small amount of histidine, tester strains grow briefly to allow the opportunity for mutation, followed by proliferation of revertant colonies upon depletion of the provided histidine. Thus, the number of revertant colonies following incubation is indicative of the ability of the test compound to induce mutations.
Tests were performed on two strains of the bacteria (TA98 and TA100) in the absence and presence of an exogenous mammalian metabolic activation system (5% v/v S9). Positive controls and BondLynx were suspended in dimethyl sulfoxide (DMSO) for testing, and DMSO served as the vehicle control. Positive controls consisted of 2-nitrofluorene (10 μg/plate) for the TA98 strain without S9, methyl mesylate (650 μg/plate) for the TA100 strain without S9, and 2-aminoanthracene for both strains with S9 (1 μg/plate for TA98 and 5 μg/plate for TA100). Eight concentrations of BondLynx (1.7, 5.4, 17, 52, 164, 512, 1600 and 5000 μg/plate) were tested in triplicate. The vehicle control was tested in triplicate and the positive controls were tested singular.
Test solutions were prepared by pre-incubating .1 mL fresh bacterial culture (10^9 cells/mL), .1 mL of a BondLynx dilution or control solution, and .5 mL of S9 mix or .1 M phosphate buffer for 30 min before adding to 3 mL of molten (45 ± 2°C) top agar. After mixing in a vortex, agar solutions were poured onto selective agar plates. Upon solidification, the prepared plates were inverted and incubated at 37.0 ± 1.0°C for 48 ± 4 h. Following incubation, revertant colonies were counted with a Sorcerer Colony Counter. The condition of the bacterial background lawn was evaluated macroscopically and/or microscopically using a dissecting microscope when considered necessary.

[4] = TA98, without S9, 1600 μg/plate
[5] = TA98, without S9, 5000 μg/plate

## FC(F)(F)C1(c2ccc(C(c3ccc(C4(C(F)(F)F)N=N4)cc3)(C(F)(F)F)C(F)(F)F)cc2)N=N1 [BondLynx, 2,2-bis-[4-[3-(trifluoromethyl)-3H-diazirin-3-yl]phenyl]hexafluoropropane]
[1]; Viability (%), +Irr
  viability at 82 min, 0.316 μg/mL: 101%
  viability at 82 min, 1 μg/mL: 99.6%
  viability at 82 min, 3.16 μg/mL: 101%
  viability at 82 min, 10 μg/mL: 103%
  viability at 82 min, 31.6 μg/mL: 106%
  viability at 82 min, 316 μg/mL: 111%
  viability at 82 min, 1000 μg/mL: 105%
[1]; Viability (%), +Irr, 100 μg/mL
  viability at 100 μg/mL: 110%
[1]; Viability (%), –Irr
  viability at 82 min, 0.316 μg/mL: 102%
  viability at 82 min, 1 μg/mL: 101%
  viability at 82 min, 3.16 μg/mL: 100%
  viability at 82 min, 10 μg/mL: 97.4%
  viability at 82 min, 31.6 μg/mL: 98.3%
  viability at 82 min, 316 μg/mL: 101%
  viability at 82 min, 1000 μg/mL: 93%
[1]; Viability (%), –Irr, 100 μg/mL
  viability at 82 min, 100 μg/mL: 100%
[1]; Irr+
  viability: 105 ± 4%
[1]; Irr−
  viability: 99 ± 3%
[2]; 3T3 NRU phototoxicity test
  Phototoxicity classification: non-phototoxic
[2]; +Irr, 0.316 μg/mL
  Corrected Mean OD540: 1.135
[2]; +Irr, 1 μg/mL
  Corrected Mean OD540: 1.116
[2]; +Irr, 3.16 μg/mL
  Corrected Mean OD540: 1.13
[2]; +Irr, 10 μg/mL
  Corrected Mean OD540: 1.149
[2]; +Irr, 31.6 μg/mL
  Corrected Mean OD540: 1.19
[2]; +Irr, 100 μg/mL
  Corrected Mean OD540: 1.236
[2]; +Irr, 316 μg/mL
  Corrected Mean OD540: 1.24
[2]; +Irr, 1000 μg/mL
  Corrected Mean OD540: 1.18
[2]; +Irr, 5 J/cm^2 UV-A
  IC50 (50% inhibition of Neutral Red uptake), presence of irradiation: no IC50
[2]; non-irradiated IC50 divided by irradiated IC50
  Photo Irritation Factor (PIF): no PIF could be calculated
[2]; presence and absence of UV-A, .316 to 1000 μg/mL
  Cytotoxicity: no cytotoxicity
[2]; –Irr
  IC50 (50% inhibition of Neutral Red uptake), absence of irradiation: no IC50
[2]; –Irr, 0.316 μg/mL
  Corrected Mean OD540: 1.17
[2]; –Irr, 1 μg/mL
  Corrected Mean OD540: 1.16
[2]; –Irr, 3.16 μg/mL
  Corrected Mean OD540: 1.15
[2]; –Irr, 10 μg/mL
  Corrected Mean OD540: 1.12
[2]; –Irr, 31.6 μg/mL
  Corrected Mean OD540: 1.13
[2]; –Irr, 100 μg/mL
  Corrected Mean OD540: 1.15
[2]; –Irr, 316 μg/mL
  Corrected Mean OD540: 1.16
[2]; –Irr, 1000 μg/mL
  Corrected Mean OD540: 1.07
[3]; TA98, absence and presence of S9, 1.7 to 5000 μg/plate
  Mutagenicity conclusion: non-mutagenic
[3]; TA98, vs DMSO vehicle control
  Total number of revertants relative to concurrent vehicle control: less than three times
[3]; TA98, with S9, 1.7 μg/plate
  Revertant Colonies (With S9), Mean ± SD: 20 ± 9
  Revertant Colonies (With S9), plates A, B, C: 10 and 23 and 26
[3]; TA98, with S9, 5.4 μg/plate
  Revertant Colonies (With S9), Mean ± SD: 13 ± 8
  Revertant Colonies (With S9), plates A, B, C: 4 and 15 and 19
[3]; TA98, with S9, 1600 μg/plate
  Revertant Colonies (With S9), Mean ± SD: 17 ± 8
  Revertant Colonies (With S9), plates A, B, C: 26 and 16 and 10
[3]; TA98, with S9, 5000 μg/plate
  Revertant Colonies (With S9), Mean ± SD: 13 ± 5
  Revertant Colonies (With S9), plates A, B, C: 8 and 16 (2×)
[3]; TA98, without S9, 1.7 μg/plate
  Revertant Colonies (Without S9), Mean ± SD: 9 ± 2
  Revertant Colonies (Without S9), plates A, B, C: 8 and 11 and 7
[3]; TA98, without S9, 5.4 μg/plate
  Revertant Colonies (Without S9), Mean ± SD: 8 ± 4
  Revertant Colonies (Without S9), plates A, B, C: 4 and 12 and 8
[3]; TA98, without S9, 17 μg/plate
  Revertant Colonies (Without S9), Mean ± SD: 13 ± 4
  Revertant Colonies (Without S9), plates A, B, C: 15 and 11 and 12
[3]; [4]
  Revertant Colonies (Without S9), Mean ± SD: 9 ± 5
  Revertant Colonies (Without S9), plates A, B, C: 7 and 15 and 5
[3]; [5]
  Revertant Colonies (Without S9), Mean ± SD: 14 ± 3
  Revertant Colonies (Without S9), plates A, B, C: 18 and 12 (2×)
[3]; absence of S9, higher concentrations
  Cytotoxicity (condition of microcolony lawn): slight thinning of the microcolony lawn
[3]; presence of S9, any tested dose level
  Cytotoxicity (condition of microcolony lawn): toxicity was not observed
